{"source": "ChEMBL document CHEMBL2203179", "about": "“New diarylureas and diarylamides possessing acet(benz)amidophenyl scaffold: design, synthesis, and antiproliferative activity against melanoma cell line” (Bioorg Med Chem Lett, 2012)", "key": {"[1]": {"test": "Antiproliferative activity against human A375P cells", "assay_type": "functional, cell-based"}, "[2]": {"test": "Ratio of IC50 for vemurafenib IC50 to compound IC50 for human A375P cells", "assay_type": "functional"}}, "data": [{"smiles": "Cc1ccc(NC(=O)Nc2ccc(C)c(NC(=O)c3ccccc3)c2)cc1C", "values": [{"measurement": "IC50", "setting": "[1]", "result": "> 30", "unit": "µM"}]}, {"smiles": "Cc1ccc(NC(=O)Nc2ccccc2Cl)cc1NC(=O)c1ccccc1", "values": [{"measurement": "IC50", "setting": "[1]", "result": "> 30", "unit": "µM"}]}, {"smiles": "Cc1ccc(NC(=O)Nc2ccc(Cl)c(Cl)c2)cc1NC(=O)c1ccccc1", "values": [{"measurement": "IC50", "setting": "[1]", "result": 5.8, "unit": "µM"}]}, {"smiles": "Cc1ccc(NC(=O)Nc2cc(Cl)cc(Cl)c2)cc1NC(=O)c1ccccc1", "values": [{"measurement": "IC50", "setting": "[1]", "result": 0.259, "unit": "µM"}]}, {"smiles": "Cc1ccc(NC(=O)Nc2cc(C(F)(F)F)cc(C(F)(F)F)c2)cc1NC(=O)c1ccccc1", "values": [{"measurement": "IC50", "setting": "[1]", "result": 0.162, "unit": "µM"}, {"measurement": "Ratio IC50", "setting": "[2]", "result": 1.57}]}, {"smiles": "Cc1ccc(NC(=O)Nc2ccc(Cl)c(C(F)(F)F)c2)cc1NC(=O)c1ccccc1", "values": [{"measurement": "IC50", "setting": "[1]", "result": 1.3, "unit": "µM"}]}, {"smiles": "Cc1ccc(NC(=O)Nc2cc(F)cc(C(F)(F)F)c2)cc1NC(=O)c1ccccc1", "values": [{"measurement": "IC50", "setting": "[1]", "result": "> 30", "unit": "µM"}]}, {"smiles": "CC(=O)c1cccc(NC(=O)Nc2ccc(C)c(NC(=O)c3ccccc3)c2)c1", "values": [{"measurement": "IC50", "setting": "[1]", "result": 9.8, "unit": "µM"}]}, {"smiles": "Cc1ccc(NC(=O)Nc2cccc(Oc3ccccc3)c2)cc1NC(=O)c1ccccc1", "values": [{"measurement": "IC50", "setting": "[1]", "result": "> 30", "unit": "µM"}]}, {"smiles": "Cc1ccc(NC(=O)Nc2ccc3c(c2)OCO3)cc1NC(=O)c1ccccc1", "values": [{"measurement": "IC50", "setting": "[1]", "result": "> 30", "unit": "µM"}]}, {"smiles": "Cc1ccc(NC(=O)Nc2ccc3c(c2)OCCO3)cc1NC(=O)c1ccccc1", "values": [{"measurement": "IC50", "setting": "[1]", "result": "> 30", "unit": "µM"}]}, {"smiles": "Cc1ccc(NC(=O)Nc2ccc(Cl)nc2)cc1NC(=O)c1ccccc1", "values": [{"measurement": "IC50", "setting": "[1]", "result": 1.6, "unit": "µM"}]}, {"smiles": "CC(=O)Nc1cc(NC(=O)c2cc(C(F)(F)F)cc(C(F)(F)F)c2)ccc1C", "values": [{"measurement": "IC50", "setting": "[1]", "result": "> 30", "unit": "µM"}]}, {"smiles": "CC(=O)Nc1cc(NC(=O)c2ccc(Cl)c(C(F)(F)F)c2)ccc1C", "values": [{"measurement": "IC50", "setting": "[1]", "result": "> 30", "unit": "µM"}]}, {"smiles": "CC(=O)Nc1cc(NC(=O)c2ccc3c(c2)OCCO3)ccc1C", "values": [{"measurement": "IC50", "setting": "[1]", "result": 12.9, "unit": "µM"}]}, {"smiles": "CC(=O)Nc1cc(NC(=O)c2cc(C)on2)ccc1C", "values": [{"measurement": "IC50", "setting": "[1]", "result": "> 30", "unit": "µM"}]}, {"smiles": "CC(=O)Nc1cc(NC(=O)c2cc(=O)c3ccccc3o2)ccc1C", "values": [{"measurement": "IC50", "setting": "[1]", "result": "> 30", "unit": "µM"}]}, {"smiles": "Cc1ccc(NC(=O)c2cc(C(F)(F)F)cc(C(F)(F)F)c2)cc1NC(=O)c1ccccc1", "values": [{"measurement": "IC50", "setting": "[1]", "result": "> 30", "unit": "µM"}]}, {"smiles": "Cc1ccc(NC(=O)c2ccc(Cl)c(C(F)(F)F)c2)cc1NC(=O)c1ccccc1", "values": [{"measurement": "IC50", "setting": "[1]", "result": "> 30", "unit": "µM"}]}, {"smiles": "Cc1ccc(NC(=O)c2ccc3c(c2)OCCO3)cc1NC(=O)c1ccccc1", "values": [{"measurement": "IC50", "setting": "[1]", "result": "> 30", "unit": "µM"}]}, {"smiles": "Cc1cc(C(=O)Nc2ccc(C)c(NC(=O)c3ccccc3)c2)no1", "values": [{"measurement": "IC50", "setting": "[1]", "result": "> 30", "unit": "µM"}]}, {"smiles": "Cc1ccc(NC(=O)c2cc(=O)c3ccccc3o2)cc1NC(=O)c1ccccc1", "values": [{"measurement": "IC50", "setting": "[1]", "result": "> 30", "unit": "µM"}]}, {"smiles": "CC(=O)Nc1cc(NC(=O)Nc2ccccc2Cl)ccc1C", "values": [{"measurement": "IC50", "setting": "[1]", "result": "> 30", "unit": "µM"}]}, {"smiles": "CC(=O)Nc1cc(NC(=O)Nc2ccc(Cl)c(Cl)c2)ccc1C", "values": [{"measurement": "IC50", "setting": "[1]", "result": 2.1, "unit": "µM"}]}, {"smiles": "CC(=O)Nc1cc(NC(=O)Nc2cc(Cl)cc(Cl)c2)ccc1C", "values": [{"measurement": "IC50", "setting": "[1]", "result": 0.561, "unit": "µM"}]}, {"smiles": "CC(=O)Nc1cc(NC(=O)Nc2cc(C(F)(F)F)cc(C(F)(F)F)c2)ccc1C", "values": [{"measurement": "IC50", "setting": "[1]", "result": 0.685, "unit": "µM"}]}, {"smiles": "CC(=O)Nc1cc(NC(=O)Nc2ccc(Cl)c(C(F)(F)F)c2)ccc1C", "values": [{"measurement": "IC50", "setting": "[1]", "result": 1.1, "unit": "µM"}]}, {"smiles": "CC(=O)Nc1cc(NC(=O)Nc2cc(F)cc(C(F)(F)F)c2)ccc1C", "values": [{"measurement": "IC50", "setting": "[1]", "result": "> 30", "unit": "µM"}]}, {"smiles": "CC(=O)Nc1cc(NC(=O)Nc2ccc(C)c(C)c2)ccc1C", "values": [{"measurement": "IC50", "setting": "[1]", "result": "> 30", "unit": "µM"}]}, {"smiles": "CC(=O)Nc1cc(NC(=O)Nc2cccc(C(C)=O)c2)ccc1C", "values": [{"measurement": "IC50", "setting": "[1]", "result": 22.1, "unit": "µM"}]}, {"smiles": "CC(=O)Nc1cc(NC(=O)Nc2cccc(Oc3ccccc3)c2)ccc1C", "values": [{"measurement": "IC50", "setting": "[1]", "result": "> 30", "unit": "µM"}]}, {"smiles": "CC(=O)Nc1cc(NC(=O)Nc2ccc3c(c2)OCO3)ccc1C", "values": [{"measurement": "IC50", "setting": "[1]", "result": "> 30", "unit": "µM"}]}, {"smiles": "CC(=O)Nc1cc(NC(=O)Nc2ccc3c(c2)OCCO3)ccc1C", "values": [{"measurement": "IC50", "setting": "[1]", "result": "> 30", "unit": "µM"}]}, {"smiles": "CC(=O)Nc1cc(NC(=O)Nc2ccc(Cl)nc2)ccc1C", "values": [{"measurement": "IC50", "setting": "[1]", "result": 1.1, "unit": "µM"}]}, {"smiles": "CNC(=O)c1cc(Oc2ccc(NC(=O)Nc3ccc(Cl)c(C(F)(F)F)c3)cc2)ccn1", "note": "[SORAFENIB]", "values": [{"measurement": "IC50", "setting": "[1]", "result": 2.7, "unit": "µM"}]}]}
